# Data as given in patent US10022382B2, “RNA polymerase I inhibitors and uses thereof” (Tel HaShomer Medical Research Infrastructure and Services …, priority 2013, dated 2018).
# Assays:
# [1] = system: pre-rRNA; experiment: Q-RT-PCR of pre-rRNA in PHA-stimulated splenocytes of naive mice; format: cell-based; conditions: 72 hours, 25 to 400 nM
# Method: RNA samples from similar cultures were also prepared and tested by Q-RT-PCR for pre-rRNA expression levels as described in Example herein below.
# (§1) RNA Extraction: For in vivo experiments spleens from EAE mice were isolated at day 17 post immunization and splenocytes were re-stimulated for 72 h hours in the presence of 5.0 μg/ml MOG35-55. For in-vitro experiments spleens from intact mice were isolated and splenocytes were stimulated with for 72 h in the presence of PHA. RNA was extracted from splenocytes of both the in-vitro and in-vivo experiments by robotic ABI PRISM, Applied biosystem 6100 Nucleic Acid Prep Station. To avoid genomic DNA contamination samples were treated with DNase I (Roche). The quality and integrity of the total RNA preparation was confirmed using a NanoDrop 2000c Spectrophotometer (Thermo Scientific).
# (§2) Quantitative RT-PCR of Pre-rRNA: Complementary DNA was obtained from the extracted RNA by the High capacity cDNA reverse transcription kit (Applied Biosystems, CA, USA) following manufacturer's instructions. To confirm the role of POL1 pathway suppression by POL1-Inhibitors, the expression level of pre-rRNA transcript, a key gene of the RNA polymerase I pathway, was evaluated by Q-RT-PCR (n=3 per group). […] (SEQ ID NO: 70) with a quantification probe (Roche, Probe ID #1, cat. no. 04684974001). […]
# [2] = Bioavailability: serum level after oral gavage or IV; format: in vivo, mice; conditions: for time to maximal concentration: healthy C57B6J female mice
# Method: Bioavailability: Determination of the level of the tested compound in serum was done following oral gavage. Blood samples (0.5 mL) were collected and immediately centrifuged at 5,000 rpm for 10 minutes. The serum was separated and stored at −20° C. until fluoprometric analysis by Tecan SpectraFluor, based on the specific excitation/emission values of the tested compound was conducted. The pharmacokinetic parameters including serum maximum concentration (Cmax), the time needed to reach Cmax (Tmax), and half-life (T1/2), were calculated to evaluate oral bioavailability. The serum concentration after oral gavages was calculated according to a calibration curve for each compound in the serum. The Pharmacokinetic properties of compound 10 were quantified by the LCMS method described below. The concentration of Compound 10 was calculated with a calibration curve. The serum was prepared for analysis using protein precipitation. 15 μL of water were added to 15 μL of serum and a H2O: MeOH: CHCl3 (90:120:30) solution was added. The supernatant was subjected to LCMS analysis equipped with a PHENOMENEX® C-18 RP column.
# [3] = Solubility in mQ water; format: physicochemical; conditions: 50 mg in 0.5 mL mQ water, room temperature
# Method: The solubility of Compounds 1 and 10 was determined by dissolving 50 mg of the tested compound in 0.5 mL of mQ water, at room temperature.
# [4] = system: splenocytes; experiment: Viability, proliferation and apoptosis of MOG 35-55 incubated splenocytes from immunized mice (XTT, BrdU, flow cytometry); format: cell-based; conditions: splenocytes 14 days post immunization, 72 h MOG 35-55, vs vehicle
# Method: In addition, viability, proliferation and apoptosis of splenocytes isolated from mice 14 days post immunization and incubated for 72 h with MOG 35-55 were assessed by XTT, BrdU and flow cytometry (Annexin V and propidium iodide double staining) assays, respectively.
# [5] = system: pre-rRNA; experiment: Q-RT-PCR of pre-rRNA in splenocytes of treated EAE mice; format: in vivo; conditions: 12.5 mg/Kg, 17 days following immunization
# Method: as §1
# as §2, with “group). All PCR reactions were performed on a Light Cycler 480 instrument (Roche Diagnostic). The pre-rRNA, specific primers used were Forward: […] (SEQ ID NO: 69) and Reverse:” for “group).”
# [6] = system: MOG35-55 EAE in C57BL/6J mice; experiment: MOG35-55 EAE prevention (immunization) model; format: in vivo; conditions: for minimal effective dose: oral
# Method: Mice: Eight-weeks-old female C57BL/6J mice (15-20 g, Harlan laboratories, Rehovot, Israel) were used in all experiments. Animal maintenance and experimental protocols were performed in accordance with the Israeli Council for Animal Care guidelines and approved by Sheba IRB Animal Care Committee. Mice were kept in an SPF environment, maintained on a 12-h light/dark cycle at a constant environmental temperature with free access to food and water in their home cages.
# Induction of MOG35-55 EAE (Prevention Model): EAE (Experimental Autoimmune Encephalomyelitis) was induced in 8 week old female C57BL/6J mice (15-20 g, Harlan laboratories, Rehovot, Israel) by immunization with an emulsion containing 300 μg of purified myelin oligodendrocyte glycoprotein (MOG) peptide ([…], corresponding to residues 35-55; obtained from (Difco, Detroit, Mich.) in saline and an equal volume of complete Freund's adjuvant containing 5 mg H37RA (Difco, Detroit, Mich.). 0.2 ml of the inoculum was injected subcutaneously. In addition, 300 ng of Bordetella pertusis toxin (Sigma) in 0.2 ml saline was injected intraperitoneally at the day of induction and two days later.
# Oral gavages with the tested compound, at various concentrations ranging from 3 mg/kg-30 mg/kg in PBS or 50 mM NaH2PO4 (PH 4.5), or with vehicle only, were initiated at day of immunization. Mice were monitored daily for clinical signs of EAE, scored as: 1, flaccid tail; 2, forelimb weakness and poor righting ability; 3, hind limb paralysis; 4, quadriplegia; 5, moribund. Animal reaching a score of 4 were scarified using CO2.
# Treatment was stopped once 30% of the vehicle-treated animals scored 1 on the EAE score. […]
# The therapeutic index (LD50/ED50), which is also referred to herein as Safety Margin (SM), was then determined based on the EAE model. ED50 is the minimum effective dose observed for 50% of the tested animals.
smiles,measurement,setting,value
"Cc1cnc(CNC(=O)c2/c(=N/c3ccccc3)c3ccc(N4CCCN(C)CC4)nc3n3c2sc2ccccc23)cn1 [Compound 10, (E)-2-(4-methyl-1,4-diazepan-1-yl)-N-((5-methylpyrazin-2-yl)methyl)-5-(phenylimino)-5H-benzo[4,5]thiazolo[3,2-a][1,8]naphthyridine-6-carboxamide]",pre-rRNA mRNA levels expressed by splenocytes,[1],significant dose dependent decrease
same,bioavailability AUC(oral)/AUC(IV),"[2]; 12.5 mg/kg, up to 168 h",72%
same,time to maximal concentration,"[2]; IV, 12.5 mg/kg",0.5 h
same,Cmax compared to Compound 1,"[2]; mice serum, oral gavage",higher
same,Tmax compared to Compound 1,"[2]; mice serum, oral gavage",lower
same,clearance compared to Compound 1,"[2]; mice serum, oral gavage",faster
same,absorption,"[2]; oral and IV, 12.5 mg/kg",rapidly absorbed
same,time to maximal concentration,"[2]; oral, 12.5 mg/kg",2 h
same,solubility,[3],immediately dissolved in the aqueous solution
same,apoptosis (Annexin V and propidium iodide),[4],induced apoptosis in CD4+ lymphocytes
same,cell proliferation (BrdU),[4],suppressed cell proliferation
same,viability (XTT),[4],reduced viability
same,decrease in pre-rRNA mRNA levels compared to vehicle,[5],5.9 folds
same,disease incidence,"[6]; 3 mg/kg, alternate days",98%
same,delay of disease development,"[6]; 12.0 mg/kg oral, alternate days",10 days
same,EAE severity,"[6]; 12.0 mg/kg oral, alternate days, 23 day post immunization",suppressed EAE severity
same,EAE onset (dpi),"[6]; 12.5 mg/Kg oral, 15 mice",19.2 ± 0.6 dpi
same,Max clinical score,"[6]; 12.5 mg/Kg oral, 15 mice",1.2 ± 0.4
same,Peak of EAE (dpi),"[6]; 12.5 mg/Kg oral, 15 mice",20.4 ± 0.7 dpi
same,Cumulative disease score,"[6]; 12.5 mg/Kg oral, sum of scores day 0 to day 31",7.2 ± 1.9
same,additional days free of disease compared to vehicle,"[6]; 12.5 mg/Kg, 15 mice per group",10 days
same,delay of peak of disease compared to vehicle,"[6]; 12.5 mg/Kg, 15 mice per group",6 days
same,EAE inhibition,[6]; 12.5 mg/kg daily,complete inhibition of EAE
same,disease incidence,"[6]; 12.5 mg/kg, alternate days",22%
same,disease development,"[6]; 30 mg/kg, alternate days",completely inhibited disease development
same,ED50,[6]; Mus musculus,3 mg/kg
same,minimal effective dose,[6]; alternate days,6 mg/kg
same,minimal effective dose,[6]; daily administration,3.0 mg/kg
